Test results from ChEMBL document CHEMBL2034959, “Hesperetin upregulates ABCA1 expression and promotes cholesterol efflux from THP-1 macrophages” (J Nat Prod, 2012).
Calls of active or inactive are those of the source. No cut-off for these calls is given here.

Legend:
Format in all cases: cell-based
[1] = biological target: T1, Oxysterols receptor LXR-alpha (Homo sapiens) (UniProt Q13133); assay: Increase in LXRalpha-mediated ABCA1 mRNA expression in human THP1 cells at 5 to 15 uM after 24 hrs by RT-PCR analysis; details: THP-1
T1 sequence (whole entry): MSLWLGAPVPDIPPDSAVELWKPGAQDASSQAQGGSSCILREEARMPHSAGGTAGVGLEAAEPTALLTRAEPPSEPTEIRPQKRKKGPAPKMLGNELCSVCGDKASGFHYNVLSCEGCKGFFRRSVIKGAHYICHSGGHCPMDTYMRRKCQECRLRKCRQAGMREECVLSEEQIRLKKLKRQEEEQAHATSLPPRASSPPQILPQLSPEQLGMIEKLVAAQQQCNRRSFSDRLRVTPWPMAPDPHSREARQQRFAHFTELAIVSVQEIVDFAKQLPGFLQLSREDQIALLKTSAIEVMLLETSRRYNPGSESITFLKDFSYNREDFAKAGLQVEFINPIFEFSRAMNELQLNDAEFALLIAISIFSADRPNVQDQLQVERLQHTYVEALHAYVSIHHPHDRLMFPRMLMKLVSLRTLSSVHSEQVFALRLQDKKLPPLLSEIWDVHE

[2] = biological target: T1, Oxysterols receptor LXR-alpha (Homo sapiens); assay: Induction of LXRalpha-mediated ABCA1 promoter activity in human THP1 cells after 24 hrs by luciferase reporter gene analysis; details: THP-1
[3] = biological target: T2, Peroxisome proliferator-activated receptor gamma (Homo sapiens) (UniProt P37231); assay: Induction of PPARgamma enhancer activity in human THP1 cells after 24 hrs by luciferase reporter gene analysis; details: THP-1
T2 sequence (whole entry): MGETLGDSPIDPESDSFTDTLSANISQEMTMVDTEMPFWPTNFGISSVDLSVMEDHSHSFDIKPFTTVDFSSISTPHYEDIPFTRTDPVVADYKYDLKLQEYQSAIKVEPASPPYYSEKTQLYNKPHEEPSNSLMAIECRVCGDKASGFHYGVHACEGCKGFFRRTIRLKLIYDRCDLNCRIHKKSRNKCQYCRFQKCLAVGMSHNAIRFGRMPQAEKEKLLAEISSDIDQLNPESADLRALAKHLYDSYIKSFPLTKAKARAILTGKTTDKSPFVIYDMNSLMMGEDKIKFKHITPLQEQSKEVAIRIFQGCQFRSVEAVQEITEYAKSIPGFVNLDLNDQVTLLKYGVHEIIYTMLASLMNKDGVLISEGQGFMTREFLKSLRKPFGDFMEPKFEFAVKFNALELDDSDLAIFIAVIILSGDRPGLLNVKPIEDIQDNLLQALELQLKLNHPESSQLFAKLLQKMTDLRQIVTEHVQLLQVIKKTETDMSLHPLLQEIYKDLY

[4] = biological target: T1, Oxysterols receptor LXR-alpha (Homo sapiens); assay: Increase in LXRalpha-mediated ABCA1 protein expression in human THP1 cells at 5 to 15 uM after 48 hrs by Western blotting analysis; details: THP-1
[5] = biological target: T2, Peroxisome proliferator-activated receptor gamma (Homo sapiens); assay: Induction of PPARgamma-mediated ABCA1 promoter activity in human THP1 cells after 24 hrs by luciferase reporter gene analysis; details: THP-1
THP-1 = assay: Cytotoxicity against human THP1 cells up to 100 uM after 24 hrs by WST8 assay; details: thp-1, 24 h
[6] = biological target: T1, Oxysterols receptor LXR-alpha (Homo sapiens); assay: Induction of LXRalpha enhancer activity in human THP1 cells after 24 hrs by luciferase reporter gene analysis; details: THP-1

Activity [1]: Active | Activity [2]: Active | Activity [3]: Dose-dependent effect | Activity [4]: Active | Activity [5]: Active | Activity [6]: Dose-dependent effect
SMILES: COc1ccc([C@@H]2CC(=O)c3c(O)cc(O)cc3O2)cc1O [HESPERETIN]
Activity (THP-1): Non-toxic
